Assay results: patent publication US20110040086A1, “Novel Beta-Lactam Antibiotics, Methods for Their Production, and Their Use” (DRITTE PATENTPORTFOLIO BETEILIGUNGSGESELLSCHAFT MB, priority 2007, published 2011)

Legend:
[1] = test system: Enterococcus faecalis 769; assay: agar diffusion test (Test System II, multi-resistant germs); assay type: cell-based; parameters: key: r = resistant (no detectable zone of inhibition)
Protocol: (§1) The test substances are deposited in stepped quantities (10 μg, 50 μg, 100 μg) onto active ingredient carriers (sensi-discs). For this purpose, the test substances are dissolved in methanol or A. dest. according to their solubility. Each inoculated plate is fitted with 3 test sheets.
(§2) Test System II (Effect Against Multi-Resistant Germs)
(§3) For this purpose, bacteria is cultivated on Müller-Hinton-Agar II plates.
(§4) With 1-1.5 ml physiological saline solution, a bacteria suspension of McFarland 0.5 (corresponds to a bacteria density of 150×10^6 germs) is produced. Then, with a sterile glass rod, a small drop of bacteria suspension is placed on the Müller-Hinton-Agar plate and coated in three layers (vertical, horizontal, and transverse). Thereafter, the sensi-discs with the novel semi-synthetic test substances are placed on top. The fitted plates are incubated for 18-20 hours at 37° C. After incubation, the diameters of the zones of inhibition are read as a measure for the antimicrobial activity of the novel semi-synthetic test substances.

[2] = test system: Staphylococcus aureus 315; assay: as above; assay type: cell-based; parameters: key: r = resistant (no detectable zone of inhibition)
Protocol: as §1, §2, §3, §4

[3] = test system: S. aureus ATCC 6538; assay: as above; assay type: cell-based, Staphylococcus aureus
Protocol: as §1, §2, §3, §4

[4] = test system: S. aureus 38418; assay: as above; assay type: cell-based, Staphylococcus aureus
Protocol: as §1, §2, §3, §4

[5] = test system: S. epidermidis 847; assay: as above; assay type: cell-based, Staphylococcus epidermidis; parameters: key: r = resistant (no detectable zone of inhibition)
Protocol: as §1, §2, §3, §4

[6] = test system: Staphylococcus aureus ATCC 6538; assay: mouse infected with Staphylococcus aureus infection model (survival); assay type: in vivo, BALB/c mice; settings: 2 × 1.0 mg (50 mg/kg) i.p.
Protocol: Method for Effectiveness In Vivo with the Mouse Infected with Staphylococcus aureus Model
On Day 0, at least 3 BALB/c mice per test substance (Table 8) or controls are pretreated with cyclophosphamide (250 mg/kg) in 250 μl PBS inta peritoneal (i.p.).
On Day 2, the animals again received 100 mg/kg i.p.
On Day 2, a colony of the test germ is transferred from a growing agar plate (Müller-Hinton-Agar, Beckton Dickinson) into a flask with 10 ml CASO broth (CASO-B., Soyabean peptone-Casein peptone broth, SIFIN, 30 g/l) and is cultivated overnight at 37° C. and a shaking frequency of 250 rpm.
On Day 3, the pre-culture (Vk) is diluted 1:50 with CASO-B and further cultivated ca. 2 hours until an extinction in the medium of 0.6 at a wavelength of 550 nm is reached. Then, it is grown 1× with PBS at room temperature and set again to an extinction of 0.6.
At least 3 animals for a test substance or controls are infected with 10 μl/g body weight grown germs of a bacteria suspension with the extinction 0.6 (ca. 10^10-10^12 CFU, Colony forming units) i.p.
After 30 minutes, antibiotic solution is injected into the mice in a volume of 200 μl PBS with 3% DMSO i.p. 6 hours later, the second antibiotic injection is performed at the same concentration. […]

[7] = test system: S. epidermidis 125; assay: agar diffusion test (Test System II, multi-resistant germs); assay type: cell-based, Staphylococcus epidermidis
Protocol: as §1, §2, §3, §4

[8] = test system: S. aureus North Germany strain; assay: as above; assay type: cell-based, Staphylococcus aureus; parameters: key: r = resistant (no detectable zone of inhibition)
Protocol: as §1, §2, §3, §4

[9] = test system: S. aureus 36881; assay: as above; assay type: cell-based, Staphylococcus aureus; parameters: key: r = resistant (no detectable zone of inhibition)
Protocol: as §1, §2, §3, §4

[10] = test system: S. aureus 520; assay: as above; assay type: cell-based, Staphylococcus aureus; parameters: key: r = resistant (no detectable zone of inhibition)
Protocol: as §1, §2, §3, §4

In the case of “3-chlorine-7-[2-(2-methoxycarbonyl-3,6-dioxocyclohexa-1,4-dienylamino)-2-phenyl-acetylamino]-8-oxo-5-aza-bicyclo[4.2.0]oct-3-ene-4-carboxylic acid [1o]”, the “Diameter of zone of inhibition” value ([1]; Quantity n 0.019) was “r”, the “Diameter of zone of inhibition” value ([1]; Quantity n 0.094) was “r” and the “Diameter of zone of inhibition” value ([1]; Quantity n 0.19) was “r”. The “Diameter of zone of inhibition” value ([2]; Quantity n 0.019) was “r”, the “Diameter of zone of inhibition” value ([2]; Quantity n 0.094) was “r” and the “Diameter of zone of inhibition” value ([2]; Quantity n 0.19) was 10 mm. For the same substance, the “Diameter of zone of inhibition” value ([3]; Quantity n 0.019) was 22 mm, the “Diameter of zone of inhibition” value ([3]; Quantity n 0.094) was 28 mm and the “Diameter of zone of inhibition” value ([3]; Quantity n 0.19) was 30 mm. The “Diameter of zone of inhibition” value ([4]; Quantity n [mol] 0.019) was 14 mm, the “Diameter of zone of inhibition” value ([4]; Quantity n [mol] 0.094) was 14 mm and the “Diameter of zone of inhibition” value ([4]; Quantity n [mol] 0.19) was 28 mm. The “Diameter of zone of inhibition” value ([5]; Quantity n [mol] 0.019) was “r”, the “Diameter of zone of inhibition” value ([5]; Quantity n [mol] 0.094) was 14 mm and the “Diameter of zone of inhibition” value ([5]; Quantity n [mol] 0.19) was 18 mm. The Survival/tested mice n/n [6] was 2/3, the “Diameter of zone of inhibition” value ([7]; Quantity n 0.019) was 14 mm and the “Diameter of zone of inhibition” value ([7]; Quantity n 0.094) was 20 mm. The “Diameter of zone of inhibition” value ([7]; Quantity n 0.19) was 24 mm, the “Diameter of zone of inhibition” value ([8]; Quantity n 0.019) was “r” and the “Diameter of zone of inhibition” value ([8]; Quantity n 0.094) was “r”. The “Diameter of zone of inhibition” value ([8]; Quantity n 0.19) was 12 mm, the “Diameter of zone of inhibition” value ([9]; Quantity n 0.019) was “r” and the “Diameter of zone of inhibition” value ([9]; Quantity n 0.094) was “r”. For the same substance, the “Diameter of zone of inhibition” value ([9]; Quantity n 0.19) was 12 mm, the “Diameter of zone of inhibition” value ([10]; Quantity n [mol] 0.019) was “r” and the “Diameter of zone of inhibition” value ([10]; Quantity n [mol] 0.094) was “r”. The “Diameter of zone of inhibition” value ([10]; Quantity n [mol] 0.19) was “r”.
